Laboratory results: patent publication US12414972B2 (University of South Florida, priority 2021, dated 2025)

Columns and labels:
mice gut = experiment: Oral administration of ethanolamine in mice; type: in vivo
From the text: (§1) RNA isolation and gene expression analyses.
(§2) miRNA profiling and expression analyses.

enteroids = experiment: Ethanolamine treatment of enteroids, expression analyses; type: cell-based, mouse
Method: Enteroids development and treatments. To develop mouse enteroids, entire small intestine was collected from mice and flushed with pre-cooled Dulbecco's phosphate buffered saline (DPBS). The lengthwise cut-opened ileum was washed with cooled PBS and fragmented into 2 mm small pieces, then transferred to a 50-ml conical flask containing cleaned pre-cooled PBS. Tissue fragments were incubated in the 25 ml of pre-warmed Trypsin (Gibco) on a rocking platform for 15 minutes. After removing the trypsin, tissue pieces were washed with 10 ml pre-cold PBS with 0.1% bovine serum albumin and filtered in a 50 ml conical tube through a 70 μm cell strainer (Falcon). These pieces were then centrifuged at 290×g for 5 min at 4° C., and the intestinal crypt-containing pallets were suspended in the 10 mL cold DMEM: F-12 (Gibco) and centrifuged at 500×g for 10 minutes followed by resuspending in 150 μL IntestiCult Organoid Growth Medium (StemCell) with […] gentamicin (Gibco). The Matrigel Matrix (Corning) was added to the suspension and the mixture of 50 μL was used to form a dome at the center of a prewarmed 24-well culture plate and incubated at 37° C. and 5% CO2 for 30 minutes to allow the Matrigel to set. To maintain the cultures, the IntestiCult Organoid Growth Medium was changed three times/week, and images were captured by from day 1 to 12. […] The organoids were harvested after 2 days of treatment(s) for miRNA, mRNA, and protein analyses. Experiments were repeated three times.
as §1, §2

Caco2 cells = experiment: Ethanolamine treatment of Caco2 cells, expression analyses; type: cell-based, Human
From the text: as §1, §2

Caco-2 cell monolayers = experiment: Transepithelial electric resistance (TEER) assay in Caco-2 cell monolayers; type: cell-based, Human; conditions: ethanolamine treatment, up to 8 hrs
Method: Transepithelial electric resistance (TEER) assay in Caco-2 cell monolayers. Human intestinal epithelial Caco-2 cells (American Type Culture Collection) were seeded on apical chamber made of polyester membrane filters with 0.4 μm pore size of 12-well transwell plates (Costar) at a density of 3×10^5/well. The culture medium from both apical and basolateral compartment were changed every two days. The cells were allowed to fully differentiate for 21 days; and fully differentiated cells were challenged with FCM and metabolites for next 8 hours with continuous measuring of TEER values, using an EVOM2 Epithelial Voltometer (WPI) according to the manufacturer's instruction. The blank inert resistance value (the insert with only culture media) was subtracted from the measured resistance value of each sample and final resistance in ohm×cm2 was calculated by multiplying the sample resistance by the area of the membrane.

miR101a-3p promoter = experiment: Promoter luciferase assay in Caco-2 cells; type: cell-based, Human
Method: Promoter luciferase assay. Caco-2 cells were seeded onto a 96-well plate at a density of 2×10^4 cells/well and transfected with miR101a-3p promoter pMK-RQ (KanR) reporter vector of 4 different nucleotide sequence (−1 to −500, −1 to −1000, −1 to −1500 and −1 to −2000) from its TSS (Transcription start site) and pMK-RQ (control vector using Lipofectamine 3000 transfection kit (Invitrogen). The TSS of miR101a-3p is located at position: chr1 65067704 (genome version hg38) as reported earlier. (Huang et al., 2017). The cells were collected at various time point (0, 1, 3, 5, 7 and 10 hrs) after transfection. The expression level of the firefly luciferase reporter gene was measured using Pierce Firefly Luciferase Glow Assay Kit.

[1] = oral, 100 mg/kg body weight, one dose, vs non-treated controls
[2] = among top 6 selected metabolites

- expression of Tjp1 mRNA in the Caco2 cells (Caco2 cells; [2]): most dramatically reduced
- expression of miR101a-3p in Caco2 cells (Caco2 cells; ethanolamine treatment): significantly increased
- expression (Arid3a) in Caco2 cells (Caco2 cells; ethanolamine treatment vs controls, FIG. 5M): significantly increased
- TEER in the monolayers of Caco2 cells (Caco-2 cell monolayers): reduced
SMILES: NCCO [ethanolamine]
- expression of miR101a-3p in the colon of mice (mice gut; ethanolamine treatment): significantly increased
- expression of miR101a-3p in the ileum of mice (mice gut; ethanolamine treatment): significantly increased
- expression of inflammatory markers (IL-1 β, IL-6 and TNF α) in the intestine (ileum) (mice gut; ethanolamine treatment in mice vs controls): significantly increased
- expression (Arid3a) in mouse intestine (mice gut; ethanolamine treatment vs controls, FIG. 5N): significantly increased
- leaky gut (FITC-dextran assay) (mice gut; oral, 100 mg/kg body weight, one dose, mice): significantly increased
- expression of (Tjp1) mRNA in the colon (mice gut; [1]): significantly reduced
- expression of (Tjp1) mRNA in the ileum (mice gut; [1]): significantly reduced
- expression of (Tjp1) protein in the ileum (mice gut; [1]): significantly reduced
- expression of Tjp1 mRNA in the enteroids (enteroids; [2]): most dramatically reduced
- expression of Arid3a in the enteroids (enteroids; ethanolamine treatment): significantly increased
- expression of miR101a-3p in enteroids (enteroids; ethanolamine treatment): significantly increased
- expression of inflammatory markers like IL-1, IL-6, and TNF-α (Caco2 cells; FIG. 12C, Caco2 culture experiments): significantly reduced
- miR101a-3p promoter activity (miR101a-3p promoter; vector carrying −1 to 500 bp fragment): no change
- miR101a-3p promoter activity (miR101a-3p promoter; vector carrying −1 to 1500 bp fragment): significantly increased
- miR101a-3p promoter activity (miR101a-3p promoter; vector carrying −1 to −1000 bp fragment): significantly increased
- miR101a-3p promoter luciferase activity (miR101a-3p promoter; vector with −1 to −2000 bp of TSS vs empty vector): increased
